Test results from the supplement of paper PMC10307832.

What was measured:
Test in all cases: relative viability (nuclei count vs DMSO), 5 days (fraction); higher = more cells survive
Wnt-C59 + Trametinib = compound: CC1=NC=CC(=C1)C2=CC=C(C=C2)CC(=O)NC3=CC=C(C=C3)C4=CN=CC=C4 [Wnt-C59] + CC(=O)Nc1cccc(-n2c(=O)n(C3CC3)c(=O)c3c(Nc4ccc(I)cc4F)n(C)c(=O)c(C)c32)c1 [Trametinib] (partner 0.02 µM)
Summary of the method: (§1)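 The day after seeding in 1536-well plates, lung cancer cell lines were treated by pin tool with a single drug, or with a fixed anchor-drug dose together with five library-drug doses (not always all listed) in √10 steps. After 5 days, a combined fix-and-stain solution (final 0.05% Triton X-100, 1% formaldehyde, 1 ug/ml Hoechst) was added. Nuclei counted on 4× images gave relative viability as treated counts over vehicle counts, reported as the median of duplicate plates.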

Wnt-C59 + Lapatinib = compound: CC1=NC=CC(=C1)C2=CC=C(C=C2)CC(=O)NC3=CC=C(C=C3)C4=CN=CC=C4 [Wnt-C59] + CS(=O)(=O)CCNCc1ccc(-c2ccc3ncnc(Nc4ccc(OCc5cccc(F)c5)c(Cl)c4)c3c2)o1 [Lapatinib] (partner 2 µM)
Summary of the method: as §1

Wnt-C59 + AZD7762 = compound: CC1=NC=CC(=C1)C2=CC=C(C=C2)CC(=O)NC3=CC=C(C=C3)C4=CN=CC=C4 [Wnt-C59] + NC(=O)Nc1cc(-c2cccc(F)c2)sc1C(=O)N[C@H]1CCCNC1 [AZD7762] (partner 0.2 µM)
Summary of the method: as §1

Lapatinib + Foretinib = compound: CS(=O)(=O)CCNCc1ccc(-c2ccc3ncnc(Nc4ccc(OCc5cccc(F)c5)c(Cl)c4)c3c2)o1 [Lapatinib] + COc1cc2c(Oc3ccc(NC(=O)C4(C(=O)Nc5ccc(F)cc5)CC4)cc3F)ccnc2cc1OCCCN1CCOCC1 [Foretinib] (partner 0.25 µM)
Summary of the method: as §1

Cell Line	relative viability (Wnt-C59 + Trametinib; first compound 0.001 µM)	relative viability (Wnt-C59 + Trametinib; first compound 0.01 µM)	relative viability (Wnt-C59 + Trametinib; first compound 0.03162 µM)	relative viability (Wnt-C59 + Trametinib; first compound 0.1 µM)	relative viability (Wnt-C59 + Lapatinib; first compound 0.001 µM)	relative viability (Wnt-C59 + Lapatinib; first compound 0.01 µM)	relative viability (Wnt-C59 + Lapatinib; first compound 0.03162 µM)	relative viability (Wnt-C59 + Lapatinib; first compound 0.1 µM)	relative viability (Wnt-C59 + AZD7762; first compound 0.001 µM)	relative viability (Wnt-C59 + AZD7762; first compound 0.01 µM)	relative viability (Wnt-C59 + AZD7762; first compound 0.03162 µM)	relative viability (Wnt-C59 + AZD7762; first compound 0.1 µM)	relative viability (Lapatinib + Foretinib; first compound 0.02 µM)	relative viability (Lapatinib + Foretinib; first compound 0.06325 µM)	relative viability (Lapatinib + Foretinib; first compound 0.2 µM)	relative viability (Lapatinib + Foretinib; first compound 0.6325 µM)	relative viability (Lapatinib + Foretinib; first compound 2 µM)
PC-3 [JPC-3]	0.78	0.736	0.623	0.785	0.465	0.459	0.447	0.496	0.883	1.05	0.758	0.927	1.04	0.989	1.03	1.09	0.471
SK-MES-1	0.61	0.556	0.511	0.518	0.543	0.5	0.467	0.448					0.826	0.499	0.969	0.908	0.516
Calu-6					1.07	1.06	1.08	0.951					0.86	0.852	0.862	0.878	0.904
NCI-H838	0.538	0.55	0.491	0.482	0.901	0.924	1.07	1.08	0.958	0.942	0.966	0.883	1.1	0.951	1.14	1.06	0.866
NCI-H2009	0.267	0.315	0.267	0.294	0.993	1.04	0.903	0.881					1.17	1.25	1.26	1.22	1.17
NCI-H647	0.503	0.404	0.528	0.47	1.04	1.08	1.21	1.04	0.554	0.389	0.502	0.472	1.06	1.16	1.22	1.01	1.2
A549					1.04	1.02	0.966	0.988					0.952	0.872	1.04	0.918	0.877
HCC-44	1.11	0.969	0.996	1.09	1.01	1.03	1.01	1.03	1.07	0.952	0.97	1.01					
SW 1573	0.515	0.551	0.582	0.515	1.06	0.906	1.05	1.12					1.04	0.601	0.86	0.922	0.886
NCI-H1650	0.642	0.716	0.684	0.774	0.761	0.74	0.708	0.698					1	1.08	1.03	1.01	0.684
NCI-H1648	0.564	0.45	0.63	0.491					0.565	0.797	0.53	0.622					
SW 900	0.809	0.745	0.793	0.6					0.602	0.615	0.555	0.562		0.808	0.659	0.781	0.734
